# Assay results from patent US20210255193A1, “LYSINE REACTIVE PROBES AND USES THEREOF” (The Scripps Research Institute, priority 2017, published 2021).
# Legend:
# [1] = biological target: T1, PNPO (Homo sapiens, UniProt Q9NVS9); experiment: competitive gel-based ABPP, apparent IC50; format: binding; settings: read-out: apparent IC50, blockade of probe labeling of K100 in PNPO
# T1 construct: Flag; expressed in transfected cells; host or cells: HEK 293T, transient transfection, soluble lysate
# T1 sequence (Q9NVS9 1-261): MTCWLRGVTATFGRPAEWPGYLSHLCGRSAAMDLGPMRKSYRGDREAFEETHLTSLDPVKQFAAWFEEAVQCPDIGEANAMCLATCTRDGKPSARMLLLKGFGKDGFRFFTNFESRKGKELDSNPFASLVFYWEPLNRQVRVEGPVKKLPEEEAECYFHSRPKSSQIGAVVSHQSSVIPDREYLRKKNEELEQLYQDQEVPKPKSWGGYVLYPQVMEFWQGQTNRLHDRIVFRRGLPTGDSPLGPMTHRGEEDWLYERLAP
# Description: (§1) Recombinant expression of proteins by transient transfection. HEK 293T cells were grown to 50% confluency in 10 ml DMEM supplemented with 10% fetal bovine serum (FBS), penicillin, streptomycin and glutamine in 10 cm tissue culture dishes. 3 μg of DNA was diluted in 500 μL DMEM and 30 μL of PEI (MW 40,000, 1 mg ml^−1, Polysciences) were added. The mixture was incubated at room temperature for 30 min and added dropwise to the cells. Cells were grown for 48 h at 37° C. with 5% CO2. Cells were washed with cold PBS, scraped with cold PBS and cell pellets were isolated by centrifugation (1,400 g, 3 min, 4° C.), and stored at −80° C. until use. Cell pellets were resuspended in PBS, lysed by sonication and fractionated (100,000 g, 45 min) to yield soluble and membrane fractions. The soluble fraction was adjusted to a final protein concentration of 1 mg ml^−1 for gel-based ABPP experiments.
# (§2) Competitive gel-based ABPP and apparent IC50 values. 50 μl of soluble proteome (1 mg ml^−1) expressing the indicated protein were treated with fragment electrophiles (1 μl of 50× stock solution in DMSO) at ambient temperature for 1 h. The indicated probe (fluorophore or alkyne-containing, 1 μl of a 500 μM solution, final concentration=10 μM) was then added and allowed to react for an additional 1 h. CuAAC and in-gel fluorescence analysis were performed as described above. For quantification of inhibition and apparent IC50 determination, the percentage of labeling was determined by quantifying the integrated optical intensity of the bands using ImageLab 5.2.1 software (BioRad). Nonlinear regression analysis was used to determine the IC50 values from a dose-response curve generated using GraphPad Prism 7.
# [2] = biological target: T2, PFKP (Homo sapiens, UniProt Q01813); experiment: competitive gel-based ABPP, apparent IC50; format: binding; settings: read-out: apparent IC50, blockade of probe labeling of recombinant PFKP
# T2 construct: Flag; expressed in transfected cells; host or cells: HEK 293T, transient transfection, soluble lysate; cDNA clone 5180268 (Dharmacon)
# T2 sequence (Q01813 1-784): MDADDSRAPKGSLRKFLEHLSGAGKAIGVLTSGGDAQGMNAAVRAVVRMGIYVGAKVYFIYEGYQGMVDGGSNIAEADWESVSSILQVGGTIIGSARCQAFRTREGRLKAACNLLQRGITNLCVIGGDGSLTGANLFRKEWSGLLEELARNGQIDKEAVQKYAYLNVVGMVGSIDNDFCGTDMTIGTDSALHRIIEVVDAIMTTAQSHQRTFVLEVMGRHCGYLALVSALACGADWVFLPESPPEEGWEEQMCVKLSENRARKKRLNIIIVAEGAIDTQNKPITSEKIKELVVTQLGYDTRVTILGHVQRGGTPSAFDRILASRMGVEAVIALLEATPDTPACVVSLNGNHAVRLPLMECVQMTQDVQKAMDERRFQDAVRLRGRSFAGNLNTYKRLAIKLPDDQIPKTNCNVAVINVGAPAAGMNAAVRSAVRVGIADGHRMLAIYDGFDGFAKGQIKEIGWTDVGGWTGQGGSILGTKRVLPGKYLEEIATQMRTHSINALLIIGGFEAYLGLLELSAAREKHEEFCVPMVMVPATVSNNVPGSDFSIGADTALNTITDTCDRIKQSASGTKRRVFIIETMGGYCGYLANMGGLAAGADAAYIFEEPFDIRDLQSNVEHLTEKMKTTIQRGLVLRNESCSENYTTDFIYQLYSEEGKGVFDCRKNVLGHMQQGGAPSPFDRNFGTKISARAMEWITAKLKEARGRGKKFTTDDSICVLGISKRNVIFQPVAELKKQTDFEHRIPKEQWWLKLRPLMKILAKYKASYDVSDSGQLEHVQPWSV
# Description: as §1, §2
IC50 [1] [nM],IC50 [2] [nM],SMILES
3000,–,"O=C(CCc1cn(-c2ccccc2)nc1-c1ccccc1)Oc1c(F)c(F)c(F)c(F)c1F [fragment 19, Pentafluorophenyl 3-(1,3-diphenyl-1H-pyrazol-4-yl)propanoate]"
–,2000,"O=C(Oc1c(F)c(F)c(F)c(F)c1F)C(c1ccccc1)c1ccccc1 [fragment 20, Pentafluorophenyl 2,2-diphenylacetate]"
